The target in this assay is T1, recombinant guanylate cyclase reporter cell line (Rattus norvegicus, UniProt P19686+P20595).
T1 construct: expressed in transfected cells
T1 sequence (P20595 1-619): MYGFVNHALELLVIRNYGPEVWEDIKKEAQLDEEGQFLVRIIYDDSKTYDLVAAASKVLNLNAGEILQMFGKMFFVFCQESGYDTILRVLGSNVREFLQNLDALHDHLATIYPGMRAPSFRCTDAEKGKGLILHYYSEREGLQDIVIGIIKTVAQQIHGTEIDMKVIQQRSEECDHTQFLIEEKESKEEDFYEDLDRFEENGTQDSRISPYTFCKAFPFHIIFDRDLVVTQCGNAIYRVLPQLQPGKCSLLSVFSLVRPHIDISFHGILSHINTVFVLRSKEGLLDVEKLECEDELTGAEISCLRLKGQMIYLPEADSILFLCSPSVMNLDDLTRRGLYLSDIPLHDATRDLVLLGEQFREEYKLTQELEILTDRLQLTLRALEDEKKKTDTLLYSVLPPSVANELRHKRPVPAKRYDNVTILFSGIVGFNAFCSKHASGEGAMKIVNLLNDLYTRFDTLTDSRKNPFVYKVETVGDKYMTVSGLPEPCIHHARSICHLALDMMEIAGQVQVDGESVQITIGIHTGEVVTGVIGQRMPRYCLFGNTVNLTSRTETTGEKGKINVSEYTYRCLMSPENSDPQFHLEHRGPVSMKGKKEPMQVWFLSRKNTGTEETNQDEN
T1 sequence (P19686 1-690): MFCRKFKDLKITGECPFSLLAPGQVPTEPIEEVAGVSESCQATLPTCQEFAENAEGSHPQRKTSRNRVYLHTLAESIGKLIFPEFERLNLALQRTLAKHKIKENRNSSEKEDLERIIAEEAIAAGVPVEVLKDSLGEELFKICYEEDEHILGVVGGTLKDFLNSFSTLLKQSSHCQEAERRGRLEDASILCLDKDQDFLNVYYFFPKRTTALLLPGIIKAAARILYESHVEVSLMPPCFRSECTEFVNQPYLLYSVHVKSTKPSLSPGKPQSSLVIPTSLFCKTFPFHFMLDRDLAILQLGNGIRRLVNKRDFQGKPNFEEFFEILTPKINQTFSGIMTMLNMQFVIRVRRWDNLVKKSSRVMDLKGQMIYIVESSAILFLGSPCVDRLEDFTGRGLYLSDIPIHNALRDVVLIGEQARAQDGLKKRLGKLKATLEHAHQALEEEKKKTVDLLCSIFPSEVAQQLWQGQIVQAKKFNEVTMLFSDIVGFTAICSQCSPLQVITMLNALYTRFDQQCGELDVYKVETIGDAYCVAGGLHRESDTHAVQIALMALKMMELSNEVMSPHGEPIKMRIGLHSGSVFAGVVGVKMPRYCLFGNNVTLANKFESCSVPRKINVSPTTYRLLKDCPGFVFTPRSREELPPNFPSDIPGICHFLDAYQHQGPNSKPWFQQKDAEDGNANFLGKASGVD
The experiment in a line: B-2. Action on recombinant guanylate cyclase reporter cell line. The following applies: MEC = minimal effective concentration; in some cases mean values from individual determinations. In kind it is cell-based. An outline of the steps: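 Each compound is applied to a cell line engineered with a reporter for recombinant guanylate cyclase. The minimal effective concentration is then noted, in part as a mean across separate determinations.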

Among the data in patent US9624214B2, “Amino-substituted imidazo[1,2-a]pyridinecarboxamides and their use” (BAYER PHARMA AKTIENGESELLSCHAFT, priority 2012, dated 2017) are MEC values, retold here.

For `Cc1cc(OCc2c(F)cccc2F)c2nc(C)c(C(=O)NCC(N)c3cc(F)c(F)c(F)c3)n2c1` (racemic) [Example 374, rac-N-[2-amino-2-(3,4,5-trifluorophenyl)ethyl]-8-[(2,6-difluorobenzyl)oxy]-2,6-dimethylimidazo[1,2-a]pyridine-3-carboxamide], the MEC amounted to 1.00 µM.
Turning to `Cc1cc(OCc2c(F)cccc2F)c2nc(C)c(C(=O)NCC(N)c3cccc(OC(F)F)c3)n2c1` (racemic) [Example 375, rac-N-{2-amino-2-[3-(difluoromethoxy)phenyl]ethyl}-8-[(2,6-difluorobenzyl)oxy]-2,6-dimethylimidazo[1,2-a]pyridine-3-carboxamide], the MEC stood at 3.00 µM.
With `Cc1cc(OCc2c(F)cccc2F)c2nc(C)c(C(=O)NCC(N)c3cccc(C(F)(F)F)c3)n2c1` (racemic) [Example 376, rac-N-{2-amino-2-[3-(trifluoromethyl)phenyl]ethyl}-8-[(2,6-difluorobenzyl)oxy]-2,6-dimethylimidazo[1,2-a]pyridine-3-carboxamide], the MEC was found to be 3.00 µM.
As for `Cc1cc(OCc2c(F)cccc2F)c2nc(C)c(C(=O)NCC(N)c3cccc(OC(F)(F)F)c3)n2c1` (racemic) [Example 377, rac-N-{2-amino-2-[3-(trifluoromethoxy)phenyl]ethyl}-8-[(2,6-difluorobenzyl)oxy]-2,6-dimethylimidazo[1,2-a]pyridine-3-carboxamide], the MEC came to 3.00 µM.
As to `COc1cccc(C(N)CNC(=O)c2c(C)nc3c(OCc4c(F)cccc4F)cc(C)cn23)c1` (racemic) [Example 378, rac-N-[2-amino-2-(3-methoxyphenyl)ethyl]-8-[(2,6-difluorobenzyl)oxy]-2,6-dimethylimidazo[1,2-a]pyridine-3-carboxamide], the MEC worked out at 1.00 µM.
On to `Cc1cc(OCc2c(F)cccc2F)c2nc(C)c(C(=O)NC(CN)c3ccc4ccccc4c3)n2c1` (racemic) [Example 379, rac-N-[2-amino-1-(2-naphthyl)ethyl]-8-[(2,6-difluorobenzyl)oxy]-2,6-dimethylimidazo[1,2-a]pyridine-3-carboxamide], for which the MEC was determined as 1.00 µM.
Turning to `Cc1cc(OCc2c(F)cccc2F)c2nc(C)c(C(=O)NC(CN)c3cccc(OC(F)(F)F)c3)n2c1` (racemic) [Example 380, rac-N-{2-amino-1-[3-(trifluoromethoxy)phenyl]ethyl}-8-[(2,6-difluorobenzyl)oxy]-2,6-dimethylimidazo[1,2-a]pyridine-3-carboxamide], the MEC came to 1.00 µM.
Regarding `Cc1cc(OCc2c(F)cccc2F)c2nc(C)c(C(=O)NC(CN)c3ccc4c(c3)OCO4)n2c1` (racemic) [Example 381, rac-N-[2-amino-1-(1,3-benzodioxol-5-yl)ethyl]-8-[(2,6-difluorobenzyl)oxy]-2,6-dimethylimidazo[1,2-a]pyridine-3-carboxamide], the MEC is 0.30 µM.
Consider `COc1cccc(C(CN)NC(=O)c2c(C)nc3c(OCc4c(F)cccc4F)cc(C)cn23)c1` (racemic) [Example 382, rac-N-[2-amino-1-(3-methoxyphenyl)ethyl]-8-[(2,6-difluorobenzyl)oxy]-2,6-dimethylimidazo[1,2-a]pyridine-3-carboxamide], for which the MEC turned out to be 0.30 µM.
`Cc1cc(OCc2c(F)cccc2F)c2nc(C)c(C(=O)NC(CN)c3cccc(Br)c3)n2c1` (racemic) [Example 383, rac-N-[2-amino-1-(3-bromophenyl)ethyl]-8-[(2,6-difluorobenzyl)oxy]-2,6-dimethylimidazo[1,2-a]pyridine-3-carboxamide]: the MEC is 0.30 µM.
Regarding `Cc1cc(OCc2c(F)cccc2F)c2nc(C)c(C(=O)NC(CN)c3ccc([N+](=O)[O-])cc3)n2c1` (racemic) [Example 384, rac-N-[2-amino-1-(4-nitrophenyl)ethyl]-8-[(2,6-difluorobenzyl)oxy]-2,6-dimethylimidazo[1,2-a]pyridine-3-carboxamide], the MEC was found to be 0.30 µM.
Regarding `C=Cc1cccc(C(CN)NC(=O)c2c(C)nc3c(OCc4c(F)cccc4F)cc(C)cn23)c1` (racemic) [Example 385, rac-N-[2-amino-1-(3-ethenylphenyl)ethyl]-8-[(2,6-difluorobenzyl)oxy]-2,6-dimethylimidazo[1,2-a]pyridine-3-carboxamide], the MEC came out at 1.00 µM.
Turning to `COc1ccc(CC(C)(CN)NC(=O)c2c(C)nc3c(OCc4c(F)cccc4F)cc(C)cn23)cc1` (racemic) [Example 386, rac-N-[1-amino-3-(4-methoxyphenyl)-2-methylpropan-2-yl]-8-[(2,6-difluorobenzyl)oxy]-2,6-dimethylimidazo[1,2-a]pyridine-3-carboxamide], the MEC was 0.65 µM.
The value for `Cc1cc(OCc2c(F)cccc2F)c2nc(C)c(C(=O)NC(CN)c3cnn(C)c3)n2c1` (racemic) [Example 387, rac-N-[2-amino-1-(1-methyl-1H-pyrazol-4-yl)ethyl]-8-[(2,6-difluorobenzyl)oxy]-2,6-dimethylimidazo[1,2-a]pyridine-3-carboxamide] was 10.0 µM; that for `Cc1cc(OCc2c(F)cccc2F)c2nc(C)c(C(=O)NC(CN)c3ccc4c(c3)OCCO4)n2c1` (racemic) [Example 388, rac-N-[2-amino-1-(2,3-dihydro-1,4-benzodioxin-6-yl)ethyl]-8-[(2,6-difluorobenzyl)oxy]-2,6-dimethylimidazo[1,2-a]pyridine-3-carboxamide] was 0.30 µM; that for `Cc1cc(OCc2c(F)cccc2F)c2nc(C)c(C(=O)NC(CN)c3csc4ccccc34)n2c1` (racemic) [Example 389, rac-N-[2-amino-1-(1-benzothiophen-3-yl)ethyl]-8-[(2,6-difluorobenzyl)oxy]-2,6-dimethylimidazo[1,2-a]pyridine-3-carboxamide] was 1.00 µM.
`Cc1cc(OCc2c(F)cccc2F)c2nc(C)c(C(=O)NC(CN)c3cc(F)c(F)c(F)c3)n2c1` (racemic) [Example 390, rac-N-[2-amino-1-(3,4,5-trifluorophenyl)ethyl]-8-[(2,6-ifluorobenzyl)oxy]-2,6-dimethylimidazo[1,2-a]pyridine-3-carboxamide]: the MEC is 0.30 µM.
Consider `CSCCC(CN)NC(=O)c1c(C)nc2c(OCc3c(F)cccc3F)cc(C)cn12` (racemic) [Example 391, rac-N-[1-amino-4-(methylsulfanyl)butan-2-yl]-8-[(2,6-difluorobenzyl)oxy]-2,6-dimethylimidazo[1,2-a]pyridine-3-carboxamide], for which the MEC was found to be 0.10 µM.
On to `Cc1cc(OCc2c(F)cccc2F)c2nc(C)c(C(=O)NC(CN)c3cccc(OC(F)F)c3)n2c1` (racemic) [Example 392, rac-N-{2-amino-1-[3-(difluoromethoxy)phenyl]ethyl}-8-[(2,6-difluorobenzyl)oxy]-2,6-dimethylimidazo[1,2-a]pyridine-3-carboxamide], for which the MEC was 1.00 µM.
As to `Cc1cc(OCc2c(F)cccc2F)c2nc(C)c(C(=O)NC(CN)c3cccc(OCCO)c3)n2c1` (racemic) [Example 393, rac-N-{2-amino-1-[3-(2-hydroxyethoxy)phenyl]ethyl}-8-[(2,6-difluorobenzyl)oxy]-2,6-dimethylimidazo[1,2-a]pyridine-3-carboxamide], the MEC amounted to 1.00 µM.
For `Cc1cc(OCc2c(F)cccc2F)c2nc(C)c(C(=O)NC(CN)c3cccc(C(F)(F)F)c3)n2c1` (racemic) [Example 394, rac-N-{2-amino-1-[3-(trifluoromethyl)phenyl]ethyl}-8-[(2,6-difluorobenzyl)oxy]-2,6-dimethylimidazo[1,2-a]pyridine-3-carboxamide], the MEC is 0.30 µM.
The value for `Cc1cc(OCc2c(F)cccc2F)c2nc(C)c(C(=O)NC(CN)c3ccc4ncccc4c3)n2c1` (racemic) [Example 395, rac-N-[2-amino-1-(quinolin-6-yl)ethyl]-8-[(2,6-difluorobenzyl)oxy]-2,6-dimethylimidazo[1,2-a]pyridine-3-carboxamide] was 1.00 µM.
